Results published in US10385069B2, “Imidazo[2,1-B]thiazole and 5,6-dihydroimidazo[2,1-B]thiazole derivatives useful as S100-inhibitors” (Active Biotech AB, priority 2015, dated 2019).

Biological target: T1, interaction between biotinylated human S100A9 and human RAGE-Fc (Homo sapiens, UniProt P06702)
T1 construct: made in house; host or cells: E. coli
T1 sequence (P06702 1-114): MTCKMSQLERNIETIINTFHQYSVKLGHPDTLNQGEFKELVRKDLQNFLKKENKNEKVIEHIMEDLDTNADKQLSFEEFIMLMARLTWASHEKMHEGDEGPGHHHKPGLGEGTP
Test: AlphaScreen inhibition assay, biot-hS100A9:hRAGE-Fc
Format: binding
Conditions: biot-hS100A9 pre-incubated with compound 1 h, assay buffer with CaCl2 and ZnCl2
Excerpt: Inhibition Assay, Biot-hS100A9:hRAGE-Fc
The AlphaScreen (Amplified Luminescent Proximity Homogeneous Assay) contains two types of beads, Alpha Donor beads and Acceptor beads (PerkinElmer). Upon laser excitation at 680 nm a photosensitizer in the Donor bead converts ambient oxygen to a more excited singlet state. The singlet oxygen molecule diffuses (maximum 200 nm) to react with a thioxene derivative in the Acceptor bead and generates a chemiluminescence reaction. Fluorophores in the Acceptor bead subsequently emit light at 520-620 nm which can be detected in the EnVision® Multilabel plate Reader (PerkinElmer). The beads are light sensitive and all work with the beads is performed under subdued light conditions or using green filters on light sources (Roscolux Chroma Green #389, Rosco).
In the AlphaScreen Inhibition Assay described here, protein A (Staphylococcus aureus) conjugated Acceptor beads are used together with streptavidin coated Donor beads (Perkin Elmer 6760617M). The Acceptor beads are pre-incubated with Fc-tagged recombinant human RAGE (rhRAGE-Fc) allowing binding of the rhRAGE-Fc to protein A on the beads. Biotinylated human S100A9 (biot-hS100A9) is pre-incubated with the low molecular test compounds. The pre-mixes are then added to the wells of a micro-plate and incubated allowing interaction between biot-hS100A9 and rhRAGE-Fc. Subsequent addition of streptavidin coated Donor beads causes binding of the streptavidin to the biotinylated hS100A9. After an additional incubation the signal is measured.
Without inhibitory compounds, the interaction of biot-hS100A9 to rhRAGE-Fc will bring the Acceptor and Donor beads in close proximity thus generating a high signal. With an inhibitor present the complex will not form resulting in a decreased signal. The assay is illustrated in FIG. 1.
Chemicals and Reagents. • AlphaScreen® General IgG (Protein A) Detection Kit, (PerkinElmer 6760617M) • HBS-P buffer (GE Healthcare, BR-1003-68) • HBS-N buffer (GE Healthcare, BR-1003-69) • CaCl2 in HBS-P • ZnCl2 in Milli-Q water • DMSO • Biotinylated hS100A9, (biotinylated via cystein by EZ-link Iodoacetyl-PEG2-Biotin reagent (Pierce no. 21334), in HBS-N • rhRAGE-Fc (R&D Systems, 1145-RG-50), in HBS-P
The AlphaScreen assay method is used for screening of the inhibitory effect of different compound samples at fixed concentrations or for IC50 determination by varying the compound concentrations. Samples of test compounds and references are prepared from solutions in DMSO. Relevant reference inhibitors and DMSO are used as controls for defined inhibition and non-inhibition, respectively in the assay. The percent inhibition in assay for test compounds and references are calculated by comparing their obtained assay signals with the signal values for the control with only DMSO (no compound).
Assay concentration of biotinylated hS100A9 and rhRAGE-Fc are batch dependent, and are determined and defined by separate cross-titration experiments using this AlphaScreen inhibition method to verify the optimal setup regarding signal strength and achievement of a defined inhibition with relevant reference compounds. The Final assay concentrations of Acceptor and Donor beads are 20 μg/mL.
Assay buffer is prepared by adding CaCl2 and ZnCl2 to HBS-P and is used freshly prepared in the experiment.
Biotin-hS100A9 solution for the experiment is prepared by dilution of appropriate amount of stock solution biot-hS100A9 in assay buffer (with CaCl2 and ZnCl2) and incubation in room temperature for 30 minutes.
rhRAGE-Fc solution for the experiment is prepared by dilution appropriate amount of rhRAGE-Fc stock in assay buffer.
Protein A Acceptor beads are diluted in assay buffer and are added to an equal volume of the prepared diluted rhRAGE-Fc solution. The beads are light sensitive. The vial is covered with aluminum foil and incubated at room temperature in the dark until biot-hS100A9+compound incubation is finished (see below). […]

| SMILES | IC50 |
| --- | --- |
| COC(=O)CCS(=O)(=O)NC(=O)c1cn2c(n1)sc1c(Cl)c(Cl)ccc12 [Example 27, Methyl 3-[({9,10-dichloro-7-thia-2,5-diazatricyclo[6.4.0.0^2 6]dodeca-1(8),3,5,9,11-pentaen-4-yl}formamido)sulfonyl]propanoate] | 70 nM |
| O=C(NS(=O)(=O)CCCO)c1cn2c(n1)sc1c(Cl)c(Cl)ccc12 [Example 28, 9,10-Dichloro-N-(3-hydroxypropanesulfonyl)-7-thia-2,5-diazatricyclo[6.4.0.0^2,6]dodeca-1(8),3,5,9,11-pentaene-4-carboxamide] | 170 nM |
| CCN(CC)CCCS(=O)(=O)NC(=O)c1cn2c(n1)sc1c(Cl)c(Cl)ccc12 [Example 29, 9,10-Dichloro-N-[3-(diethylamino)propanesulfonyl]-7-thia-2,5-diazatricyclo[6.4.0.0^2,6]dodeca-1(8),3,5,9,11-pentaene-4-carboxamide] | 460 nM |
| CS(=O)(=O)NC(=O)Cc1cn2c(n1)sc1c(Cl)c(Cl)ccc12 [Example 30, 2-{9,10-Dichloro-7-thia-2,5-diazatricyclo[6.4.0.0^2,6]dodeca-1(8),3,5,9,11-pentaen-4-yl}-N-methanesulfonylacetamide] | 2910 nM |
| O=C(O)c1cn2c3c(sc2n1)CCCC3 [Example 31, 7-Thia-2,5-diazatricyclo[6.4.0.0^2,6]dodeca-1(8),3,5-triene-4-carboxylic acid] | 2390 nM |
| CC1(C)Cc2c(sc3nc(C(=O)O)cn23)C(C)(C)C1 [Example 32, 9,9,11,11-Tetramethyl-7-thia-2,5-diazatricyclo[6.4.0.0^2,6]dodeca-1(8),3,5-triene-4-carboxylic acid] | 320 nM |
| CC1(C)CCc2c(sc3nc(C(=O)O)cn23)C1 [Example 33, 10,10-Dimethyl-7-thia-2,5-diazatricyclo[6.4.0.0^2,6]dodeca-1(8),3,5-triene-4-carboxylic acid] | 830 nM |
| O=C(O)c1cn2c3c(sc2n1)CC(c1ccccc1)CC3 (stereo not shown) [Example 34, 10-Phenyl-7-thia-2,5-diazatricyclo[6.4.0.0^2,6]dodeca-1(8),3,5-triene-4-carboxylic acid] | 1500 nM |
| CC(C)(C)C1CCc2c(sc3nc(C(=O)O)cn23)C1 (stereo not shown) [Example 35, 10-tert-Butyl-7-thia-2,5-diazatricyclo[6.4.0.0^2,6]dodeca-1(8),3,5-triene-4-carboxylic acid] | 450 nM |
| CC1(C)Cc2c(sc3nc(C(=O)O)cn23)C1(C)C [Example 36, 4,4,5,5-Tetramethyl-7-thia-1,9-diazatricyclo[6.3.0.0^2,6]undeca-2(6),8,10-triene-10-carboxylic acid] | 360 nM |
| O=C(O)c1cn2c3c(sc2n1)CCCCC3 [Example 37, 7-Thia-2,5-diazatricyclo[6.5.0.0^2,6]trideca-1(8),3,5-triene-4-carboxylic acid] | 1050 nM |
| CC1(C)CCc2sc3nc(C(=O)O)cn3c2C1 [Example 38, 11,11-Dimethyl-7-thia-2,5-diazatricyclo[6.4.0.0^2,6]dodeca-1(8),3,5-triene-4-carboxylic acid] | 830 nM |
| O=C(O)c1cn2c3c(sc2n1)C(O)CCC3 (stereo not shown) [Example 39, 9-Hydroxy-7-thia-2,5-diazatricyclo[6.4.0.0^2,6]dodeca-1(8),3,5-triene-4-carboxylic acid] | 2980 nM |
| CC(C)(C)Nc1c(C(=O)O)nc2sc3c(n12)CCC(C(C)(C)C)C3 (stereo not shown) [Example 40, 10-tert-Butyl-3-(tert-butylamino)-7-thia-2,5-diazatricyclo[6.4.0.0^2,6]dodeca-1(8),3,5-triene-4-carboxylic acid] | 460 nM |
| O=C(O)c1cn2c3c(sc2n1)-c1ccccc1CC3 [Example 41, 16-Thia-11,14-diazatetracyclo[8.6.0.0^2,7.0^11,15]hexadeca-1 (10),2(7),3,5,12,14-hexaene-13-carboxylic acid] | 360 nM |
| CC(C)(C)C1CCc2c(sc3nc(C(=O)O)c(NCc4ccccc4)n23)C1 (stereo not shown) [Example 42, 3-(Benzylamino)-10-tert-butyl-7-thia-2,5-diazatricyclo[6.4.0.0^2,6]dodeca-1(8),3,5-triene-4-carboxylic acid] | 1040 nM |
| CC1(C)CCCc2c1sc1nc(C(=O)O)cn21 [Example 43, 9,9-Dimethyl-7-thia-2,5-diazatricyclo[6.4.0.0^2,6]dodeca-1(8),3,5-triene-4-carboxylic acid] | 1240 nM |
| CC1CCCc2c1sc1nc(C(=O)O)cn21 (stereo not shown) [Example 44, 9-Methyl-7-thia-2,5-diazatricyclo[6.4.0.0^2,6]dodeca-1(8),3,5-triene-4-carboxylic acid] | 840 nM |
| CC(C)(C)C1CCc2c(sc3nc(CC(=O)O)cn23)C1 (stereo not shown) [Example 45, 2-{10-tert-Butyl-7-thia-2,5-diazatricyclo[6.4.0.0^2,6]dodeca-1(8),3,5-trien-4-yl}acetic acid] | 3100 nM |
| CC1(C)Cc2c(sc3nc(CC(=O)O)cn23)C(C)(C)C1 [Example 46, 2-{9,9,11,11-Tetramethyl-7-thia-2,5-diazatricyclo[6.4.0.0^2,6]dodeca-1(8),3,5-trien-4-yl}acetic acid] | 4940 nM |
| CC(C)(C)C1CCc2c(sc3nc(C(=O)NS(C)(=O)=O)cn23)C1 (stereo not shown) [Example 47, 10-tert-Butyl-N-methanesulfonyl-7-thia-2,5-diazatricyclo[6.4.0.0^2,6]dodeca-1(8),3,5-triene-4-carboxamide] | 340 nM |
| CC1(C)CCc2sc3nc(C(=O)NS(C)(=O)=O)cn3c2C1 [Example 50, N-Methanesulfonyl-11,11-dimethyl-7-thia-2,5-diazatricyclo[6.4.0.0^2,6]dodeca-1(8),3,5-triene-4-carboxamide] | 1040 nM |
| CC(C)(C)C1CCc2c(sc3nc(C(=O)NS(=O)(=O)CCCN4CCOCC4)cn23)C1 (stereo not shown) [Example 51, 10-tert-Butyl-N-[3-(morpholin-4-yl)propanesulfonyl]-7-thia-2,5-diazatricyclo[6.4.0.0^2,6]dodeca-1(8),3,5-triene-4-carboxamide] | 490 nM |
| CC1(C)Cc2c(sc3nc(C(=O)NS(C)(=O)=O)cn23)C1(C)C [Example 52, N-Methanesulfonyl-4,4,5,5-tetramethyl-7-thia-1,9-diazatricyclo[6.3.0.0^2,6]undeca-2(6),8,10-triene-10-carboxamide] | 440 nM |
| CC1(C)Cc2c(sc3nc(C(=O)NS(C)(=O)=O)cn23)C(C)(C)C1 [Example 53, N-Methanesulfonyl-9,9,11,11-tetramethyl-7-thia-2,5-diazatricyclo[6.4.0.0^2,6]dodeca-1(8),3,5-triene-4-carboxamide] | 480 nM |
| CCN(CC)CCCS(=O)(=O)NC(=O)c1cn2c3c(sc2n1)C(C)(C)CC(C)(C)C3 [Example 54, N-[3-(Diethylamino)propanesulfonyl]-9,9,11,11-tetramethyl-7-thia-2,5-diazatricyclo[6.4.0.0^2,6]dodeca-1(8),3,5-triene-4-carboxamide] | 1360 nM |
| CC1(C)Cc2c(sc3nc(C(=O)NS(=O)(=O)CCCN4CCOCC4)cn23)C(C)(C)C1 [Example 55, 9,9,11,11-Tetramethyl-N-[3-(morpholin-4-yl)propanesulfonyl]-7-thia-2,5-diazatricyclo[6.4.0.0^2,6]dodeca-1(8),3,5-triene-4-carboxamide] | 550 nM |
| CC1(C)CCc2sc3nc(C(=O)NS(=O)(=O)CC(F)(F)F)cn3c2C1 [Example 57, 11,11-Dimethyl-N-(2,2,2-trifluoroethanesulfonyl)-7-thia-2,5-diazatricyclo[6.4.0.0^2,6]dodeca-1(8),3,5-triene-4-carboxamide] | 740 nM |
